Reference: patent publication US20150307520A1, “NOVEL HETEROARYL AND HETEROCYCLE COMPOUNDS, COMPOSITIONS AND METHODS THEREOF” (HUTCHISON MEDIPHARMA LIMITED, priority 2012, published 2015)
pIC50: −log10 of the molar value.

Columns and labels:
Format in all cases: biochemical
[1] = molecular target: p110δ/p85α (Homo sapiens, UniProt O00329); test: Transcreener KINASE Assay, kinase inhibition of p110δ/p85α; settings: for PI3Kδ IH % @ 1 uM: 1 uM test compound; for pIC50: read-out: PI3Kδ IC50
Summary of the method: (§1)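 Kinase reactions run 80 min at room temperature, pH buffered with 50 mM HEPES plus 3 mM MgCl2 and 0.03% CHAPS; the PIP2/ATP mix added was 30 uM/10 uM. Generated ADP is then read by FP immunoassay.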

[2] = molecular target: p110β/p85α (Homo sapiens, UniProt P42338); test: Transcreener KINASE Assay, kinase inhibition of p110β/p85α; settings: for PI3Kβ IH % @ 1 uM: 1 uM test compound; for pIC50: read-out: PI3Kβ IC50
Chain of p110β/p85α (P42338 whole entry): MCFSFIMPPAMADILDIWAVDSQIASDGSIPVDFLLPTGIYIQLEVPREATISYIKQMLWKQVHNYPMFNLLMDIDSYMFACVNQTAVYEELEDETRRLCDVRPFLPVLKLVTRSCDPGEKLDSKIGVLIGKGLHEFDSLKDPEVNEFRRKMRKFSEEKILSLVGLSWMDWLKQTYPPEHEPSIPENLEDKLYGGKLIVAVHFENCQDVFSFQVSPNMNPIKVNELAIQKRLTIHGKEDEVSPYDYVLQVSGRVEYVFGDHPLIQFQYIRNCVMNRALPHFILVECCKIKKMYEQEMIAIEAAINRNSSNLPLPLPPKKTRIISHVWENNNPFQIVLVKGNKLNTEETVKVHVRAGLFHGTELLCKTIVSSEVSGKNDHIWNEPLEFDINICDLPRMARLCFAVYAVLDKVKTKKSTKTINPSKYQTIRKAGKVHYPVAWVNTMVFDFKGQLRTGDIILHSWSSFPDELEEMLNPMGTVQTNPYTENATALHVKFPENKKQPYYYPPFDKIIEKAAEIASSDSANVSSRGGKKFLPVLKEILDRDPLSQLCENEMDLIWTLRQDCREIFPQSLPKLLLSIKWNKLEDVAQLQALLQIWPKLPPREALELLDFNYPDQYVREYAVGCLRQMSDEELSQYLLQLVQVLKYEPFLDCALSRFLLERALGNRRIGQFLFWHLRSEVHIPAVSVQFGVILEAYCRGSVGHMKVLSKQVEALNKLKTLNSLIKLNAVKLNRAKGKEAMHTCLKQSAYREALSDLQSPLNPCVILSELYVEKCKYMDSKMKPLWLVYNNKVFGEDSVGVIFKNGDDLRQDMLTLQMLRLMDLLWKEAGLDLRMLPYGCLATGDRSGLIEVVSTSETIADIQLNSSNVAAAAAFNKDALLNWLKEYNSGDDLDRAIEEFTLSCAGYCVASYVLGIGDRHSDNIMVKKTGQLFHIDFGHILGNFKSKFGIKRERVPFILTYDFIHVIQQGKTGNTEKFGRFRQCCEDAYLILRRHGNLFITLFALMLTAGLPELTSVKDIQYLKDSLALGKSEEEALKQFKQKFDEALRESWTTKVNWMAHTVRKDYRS
Chain of p110β/p85α (P27986 2-724 partner): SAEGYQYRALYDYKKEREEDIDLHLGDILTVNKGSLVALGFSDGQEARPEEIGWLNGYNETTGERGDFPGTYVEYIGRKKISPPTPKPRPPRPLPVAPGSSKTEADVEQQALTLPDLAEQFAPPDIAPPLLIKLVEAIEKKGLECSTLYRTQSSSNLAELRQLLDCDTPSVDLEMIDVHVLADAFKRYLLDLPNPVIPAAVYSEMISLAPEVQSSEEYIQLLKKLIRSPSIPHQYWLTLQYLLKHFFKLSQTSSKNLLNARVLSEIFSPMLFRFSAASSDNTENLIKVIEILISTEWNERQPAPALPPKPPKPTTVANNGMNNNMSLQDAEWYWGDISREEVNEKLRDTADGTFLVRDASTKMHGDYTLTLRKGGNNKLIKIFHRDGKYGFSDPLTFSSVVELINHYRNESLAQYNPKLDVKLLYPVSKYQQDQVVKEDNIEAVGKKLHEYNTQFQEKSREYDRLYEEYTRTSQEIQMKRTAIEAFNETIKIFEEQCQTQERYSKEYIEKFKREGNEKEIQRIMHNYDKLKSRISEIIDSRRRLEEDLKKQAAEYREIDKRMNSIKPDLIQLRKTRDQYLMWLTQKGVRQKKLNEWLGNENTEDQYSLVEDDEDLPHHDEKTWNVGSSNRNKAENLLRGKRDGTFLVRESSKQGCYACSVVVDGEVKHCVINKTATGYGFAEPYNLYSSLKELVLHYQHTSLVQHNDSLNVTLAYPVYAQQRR
Summary of the method: as §1

[3] = molecular target: p110γ (Homo sapiens, UniProt P48736); test: Transcreener KINASE Assay, kinase inhibition of p110γ; settings: for PI3Kγ IH % @ 1 uM: 1 uM test compound; for pIC50: read-out: PI3Kγ IC50
Chain of p110γ (P48736 whole entry, canonical isoform): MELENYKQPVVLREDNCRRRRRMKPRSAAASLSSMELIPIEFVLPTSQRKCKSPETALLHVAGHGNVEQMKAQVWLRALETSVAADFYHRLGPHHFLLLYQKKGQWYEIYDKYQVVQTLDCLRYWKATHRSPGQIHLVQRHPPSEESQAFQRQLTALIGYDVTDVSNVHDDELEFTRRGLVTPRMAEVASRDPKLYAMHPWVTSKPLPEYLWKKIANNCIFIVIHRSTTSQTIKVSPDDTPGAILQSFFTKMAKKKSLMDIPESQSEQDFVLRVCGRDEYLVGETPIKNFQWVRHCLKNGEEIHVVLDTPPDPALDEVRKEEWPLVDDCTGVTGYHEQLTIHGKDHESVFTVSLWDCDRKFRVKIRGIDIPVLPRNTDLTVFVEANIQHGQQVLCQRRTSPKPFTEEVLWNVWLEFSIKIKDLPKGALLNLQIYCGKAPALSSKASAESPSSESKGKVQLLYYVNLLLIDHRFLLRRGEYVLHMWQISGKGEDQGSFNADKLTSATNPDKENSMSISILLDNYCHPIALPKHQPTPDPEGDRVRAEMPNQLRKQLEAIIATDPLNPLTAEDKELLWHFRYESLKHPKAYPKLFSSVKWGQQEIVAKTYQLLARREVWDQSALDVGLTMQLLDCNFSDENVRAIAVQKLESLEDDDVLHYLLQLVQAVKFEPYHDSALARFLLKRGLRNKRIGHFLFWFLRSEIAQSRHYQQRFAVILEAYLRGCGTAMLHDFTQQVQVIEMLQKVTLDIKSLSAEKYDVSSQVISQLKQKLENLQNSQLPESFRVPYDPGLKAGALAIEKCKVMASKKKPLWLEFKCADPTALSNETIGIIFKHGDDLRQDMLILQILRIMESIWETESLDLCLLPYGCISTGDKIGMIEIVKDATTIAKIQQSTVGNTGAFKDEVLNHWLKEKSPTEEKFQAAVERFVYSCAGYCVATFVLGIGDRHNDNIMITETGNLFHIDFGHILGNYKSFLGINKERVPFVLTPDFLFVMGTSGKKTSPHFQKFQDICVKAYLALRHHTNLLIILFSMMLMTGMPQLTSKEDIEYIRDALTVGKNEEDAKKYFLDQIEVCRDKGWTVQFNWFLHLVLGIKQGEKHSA
Summary of the method: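 ADP-detecting fluorescence polarization immunoassay run as two-step endpoint: kinase reaction for 80 min, detection for 60 min, both at room temperature. Enzymes are recombinant p110 isoforms with p85α, except p110γ. IC50s derived from fitted inhibition curves.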

Chain of p110δ/p85α (O00329 whole entry): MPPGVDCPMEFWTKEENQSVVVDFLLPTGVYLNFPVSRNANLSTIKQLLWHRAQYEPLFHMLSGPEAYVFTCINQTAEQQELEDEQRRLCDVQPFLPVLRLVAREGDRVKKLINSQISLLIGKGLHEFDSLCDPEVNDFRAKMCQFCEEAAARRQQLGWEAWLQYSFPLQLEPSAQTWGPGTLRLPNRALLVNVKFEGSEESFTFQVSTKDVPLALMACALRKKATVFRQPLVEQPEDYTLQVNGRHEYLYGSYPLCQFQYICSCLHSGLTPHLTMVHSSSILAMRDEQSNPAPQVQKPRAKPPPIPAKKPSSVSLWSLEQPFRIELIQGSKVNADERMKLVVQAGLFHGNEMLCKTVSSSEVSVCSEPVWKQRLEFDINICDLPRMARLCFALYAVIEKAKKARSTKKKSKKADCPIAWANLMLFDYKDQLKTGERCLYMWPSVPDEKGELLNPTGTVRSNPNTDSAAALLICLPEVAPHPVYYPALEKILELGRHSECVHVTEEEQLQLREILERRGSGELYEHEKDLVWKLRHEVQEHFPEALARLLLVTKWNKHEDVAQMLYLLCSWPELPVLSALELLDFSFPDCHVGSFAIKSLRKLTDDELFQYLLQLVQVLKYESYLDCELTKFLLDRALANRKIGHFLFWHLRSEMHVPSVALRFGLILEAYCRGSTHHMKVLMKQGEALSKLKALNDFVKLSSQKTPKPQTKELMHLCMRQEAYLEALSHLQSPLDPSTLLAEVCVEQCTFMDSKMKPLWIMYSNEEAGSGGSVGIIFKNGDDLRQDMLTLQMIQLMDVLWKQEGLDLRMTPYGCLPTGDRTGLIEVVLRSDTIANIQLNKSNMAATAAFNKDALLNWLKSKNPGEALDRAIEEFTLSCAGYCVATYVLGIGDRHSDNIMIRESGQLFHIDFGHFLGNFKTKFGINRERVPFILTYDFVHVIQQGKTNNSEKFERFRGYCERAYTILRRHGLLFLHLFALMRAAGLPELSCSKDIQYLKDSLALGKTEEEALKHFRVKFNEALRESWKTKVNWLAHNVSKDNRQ
Chain of p110δ/p85α (P27986 whole entry partner): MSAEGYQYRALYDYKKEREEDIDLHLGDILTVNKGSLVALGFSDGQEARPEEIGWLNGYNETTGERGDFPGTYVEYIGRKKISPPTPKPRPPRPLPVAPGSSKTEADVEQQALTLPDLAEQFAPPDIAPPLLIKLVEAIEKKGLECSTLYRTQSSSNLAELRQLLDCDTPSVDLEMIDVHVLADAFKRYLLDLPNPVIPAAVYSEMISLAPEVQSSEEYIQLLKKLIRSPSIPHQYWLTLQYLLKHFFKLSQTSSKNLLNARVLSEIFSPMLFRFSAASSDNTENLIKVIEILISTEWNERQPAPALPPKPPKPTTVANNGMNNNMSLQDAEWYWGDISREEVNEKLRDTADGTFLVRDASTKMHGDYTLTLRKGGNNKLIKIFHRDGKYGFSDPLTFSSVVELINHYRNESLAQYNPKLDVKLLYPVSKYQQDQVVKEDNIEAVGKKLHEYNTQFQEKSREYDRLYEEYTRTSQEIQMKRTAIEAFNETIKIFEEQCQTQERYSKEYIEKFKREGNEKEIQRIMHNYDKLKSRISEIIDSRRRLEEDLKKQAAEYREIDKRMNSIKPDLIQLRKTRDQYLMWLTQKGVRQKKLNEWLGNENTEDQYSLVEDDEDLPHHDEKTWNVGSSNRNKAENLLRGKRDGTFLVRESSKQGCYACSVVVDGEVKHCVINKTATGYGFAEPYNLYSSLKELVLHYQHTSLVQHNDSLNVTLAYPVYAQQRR

Row | PI3Kδ IH % @ 1 uM [1] [%] | pIC50 [1] | PI3Kβ IH % @ 1 uM [2] [%] | PI3Kγ IH % @ 1 uM [3] [%] | pIC50 [3] | pIC50 [2] | SMILES
1 | 95.3 | 7.92 | 37.0 | >100 |  |  | N#Cc1cnc(N)nc1N1CC[C@H]1c1nn2ccc(Cl)c2c(=O)n1-c1ccccc1 [Compound 212]
2 | 93.7 | 8.52 | 31.1 | 95.6 | 8.00 |  | N#Cc1cnc(N)nc1N1CC(=O)C[C@H]1c1nn2ccc(Cl)c2c(=O)n1-c1cccc(F)c1 [Compound 404]
3 | 98.5 | 8.40 | 65.3 | >100 | 7.74 |  | CS(=O)(=O)c1cccc(-n2c([C@@H]3CCCN3c3ncnc4[nH]cc(C#N)c34)nn3ccc(Cl)c3c2=O)c1 [Compound 192]
4 | >100 | 9.00 | 94.2 | 97.6 | 8.70 | 7.82 | CC(Nc1nc(N)ncc1C#N)c1cn2ccc(Cl)c2c(=O)n1-c1ccccc1 (stereo not drawn) [Compound 271]
5 | 96.3 | 9.00 | 97.1 | 91.3 | 8.70 | 7.57 | Cc1nc(N)nc(N2C[C@H](C)C2c2nn3ccc(Cl)c3c(=O)n2-c2ccccc2)c1C#N (stereo partly drawn) [Compound 437]
6 | 98.1 | 8.70 | 93.0 | 92.4 | 8.52 | 7.66 | Cc1nc(N)nc(N2C[C@H](C)C2c2nn3ccc(Cl)c3c(=O)n2-c2ccc(F)cc2)c1C#N (stereo partly drawn) [Compound 439]
7 | 27.8 |  | 4.9 | 36.6 |  |  | CC(=O)c1cnc(N)nc1N1CC[C@@H]1c1nn2ccc(Cl)c2c(=O)n1-c1ccccc1 [Compound 470]
8 | 99.1 | 8.70 | 88.2 | >100 | 7.77 | 7.25 | N#Cc1c[nH]c2ncnc(N3CCCC3c3cn4ccc(Cl)c4c(=O)n3-c3ccccc3)c12 (stereo not drawn) [Compound 364]
9 | 99.7 | 9.00 | 65.7 | >100 | 7.92 | 6.57 | O=c1c2c(Cl)ccn2nc([C@@H]2C[C@H](F)CN2c2ncnc3[nH]cnc23)n1-c1cccc(F)c1 [Compound 214]
10 | 97.1 | 7.64 | 20.0 | 93.7 | 7.17 |  | CC(=O)c1c[nH]c2ncnc(N3CC[C@H]3c3nn4ccc(Cl)c4c(=O)n3-c3ccccn3)c12 [Compound 312]
11 | >100 | 7.77 | 62.0 | >100 | 7.18 | 6.57 | N#C[C@@H]1C[C@@H](c2nn3ccc(Cl)c3c(=O)n2-c2ccccc2)N(c2ncnc3[nH]cnc23)C1 [Compound 358, (3R,5S)-5-(5-chloro-4-oxo-3-phenyl-3,4-dihydropyrrolo[2,1-f][1,2,4]triazin-2-yl)-1-(9H-purin-6-yl)pyrrolidine-3-carbonitrile]
12 | >100 | 7.85 | 37.6 | 86.3 | 7.46 |  | C[C@H]1CN(c2ncnc3[nH]cnc23)C1c1nn2ccc(Cl)c2c(=O)n1-c1ccccc1 (stereo partly drawn) [Compound 237]
13 | 77.5 | 6.62 | 22.3 | 4.3 |  |  | CC(=O)c1c[nH]c2ncnc(N3CC(=O)C[C@H]3c3nn4ccc(F)c4c(=O)n3-c3ccccc3)c12 [Compound 445]
14 | 81.0 | 7.23 | 22.9 | 71.6 |  |  | Nc1ncc(Cl)c(N2CC[C@H]2c2nn3ccc(Cl)c3c(=O)n2-c2ccccc2)n1 [Compound 223]

Second part, the compound before the results:

Row | SMILES | PI3Kδ IH % @ 1 uM [1] [%] | pIC50 [1] | PI3Kβ IH % @ 1 uM [2] [%] | PI3Kγ IH % @ 1 uM [3] [%] | pIC50 [3] | pIC50 [2]
15 | N#Cc1c[nH]c2ncnc(N3CC[C@H]3c3nn4ccc(Cl)c4c(=O)n3CC(F)F)c12 [Compound 59, (S)-4-(2-(5-chloro-3-(2,2-difluoroethyl)-4-oxo-3,4-dihydropyrrolo[2,1-f][1,2,4]triazin-2-yl)azetidin-1-yl)-7H-pyrrolo[2,3-d]pyrimidine-5-carbonitrile] | 73.6 | 6.41 | 34.7 | 45.8 |  | 
16 | O=c1c2c(C3CC3)ccn2nc([C@@H]2CCCN2c2ncnc3[nH]cnc23)n1-c1ccccc1 [Compound 51] | 80.1 | 6.46 | −7.4 | 89.1 | 6.53 | 
17 | O=c1c2c(F)ccn2nc([C@@H]2C[C@H](F)CN2c2ncnc3[nH]cnc23)n1-c1ccccc1 [Compound 132, 5-fluoro-2-((2S,4S)-4-fluoro-1-(9H-purin-6-yl)pyrrolidin-2-yl)-3-phenylpyrrolo[2,1-f][1,2,4]triazin-4(3H)-one] | >100 | 8.05 | 74.5 | >100 | 7.15 | 6.47
18 | Nc1ncc(C(F)(F)F)c(N2CCC[C@H]2c2nn3ccc(Cl)c3c(=O)n2-c2ccccc2)n1 [Compound 50] | >100 | 7.54 | 4.4 | 89.3 | 6.83 | 
19 | CC(Nc1ncnc2[nH]cc(C#N)c12)c1cn2ccc(Cl)c2c(=O)n1-c1ccccc1 (stereo not drawn) [Compound 88] | 93.2 |  | 94.7 | 98.0 | 7.85 | 7.24
20 | Nc1nc(N2CC[C@H]2c2nn3ccc(Cl)c3c(=O)n2-c2ccccc2)n2nccc2n1 [Compound 137] | 96.8 | 7.44 | 35.9 | 89.3 | 7.89 | 
21 | COc1ccc(-c2c(N)ncnc2N2CC[C@H]2c2nn3ccc(Cl)c3c(=O)n2-c2ccccc2)cn1 [Compound 108, (S)-2-(1-(6-amino-5-(6-methoxypyridin-3-yl)pyrimidin-4-yl)azetidin-2-yl)-5-chloro-3-phenylpyrrolo[2,1-f][1,2,4]triazin-4(3H)-one] | 75.9 |  | 26.9 | 90.0 |  | 
22 | Nc1ccc(-c2n[nH]c3ncnc(N4CCC[C@H]4c4nn5ccc(Cl)c5c(=O)n4-c4ccccc4)c23)cn1 [Compound 167] | >100 | 8.30 | 42.3 | >100 | 7.68 | 
23 | CC(Nc1ncnc2[nH]cc(C#N)c12)c1cn2ccc(Cl)c2c(=O)n1-c1cccc(F)c1 (stereo not drawn) [Compound 76] | 98.8 |  | 82.0 | 93.9 |  | 6.98
24 | CC(Nc1ncnc2[nH]cc(C#N)c12)c1cc2ncc(Cl)n2c(=O)n1-c1cccc(F)c1 (stereo not drawn) [Compound 118] | 77.5 | 6.33 | 19.1 | 5.2 |  | 
